Common to all, as to test: relative viability (nuclei count vs DMSO), 5 days (fraction); higher = more cells survive
Compound in the experiment “Salubrinal + Tozasertib”: O=C(/C=C/c1ccccc1)NC(NC(=S)Nc1cccc2cccnc12)C(Cl)(Cl)Cl [Salubrinal] + Cc1cc(Nc2cc(N3CCN(C)CC3)nc(Sc3ccc(NC(=O)C4CC4)cc3)n2)n[nH]1 [Tozasertib] (partner 0.1 µM)
In outline:
(§1)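 Five library-drug doses in √10 steps were combined with a fixed anchor-drug dose, or a single drug was given alone, by pin tool to lung cancer cell lines in 1536-well plates the day after seeding. Nuclei were stained and counted after 5 days. Relative viability is the nuclei count in treated wells over that in vehicle wells, taken as the median of duplicate plates.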

Compound in the experiment “Salubrinal + Bortezomib”: O=C(/C=C/c1ccccc1)NC(NC(=S)Nc1cccc2cccnc12)C(Cl)(Cl)Cl [Salubrinal] + CC(C)C[C@H](NC(=O)[C@H](Cc1ccccc1)NC(=O)c1cnccn1)B(O)O [Bortezomib] (partner 0.002 µM)
In outline: as §1

Compound in the experiment “Salubrinal + Dasatinib”: O=C(/C=C/c1ccccc1)NC(NC(=S)Nc1cccc2cccnc12)C(Cl)(Cl)Cl [Salubrinal] + Cc1nc(Nc2ncc(C(=O)Nc3c(C)cccc3Cl)s2)cc(N2CCN(CCO)CC2)n1 [Dasatinib] (partner 0.075 µM)
In outline:
as §1

Compound in experiment [1]: Cc1ccc2nc(NCCN)c3ncc(C)n3c2c1 + C[C@]1(O)C[C@@H](c2nc(-c3ccc4ccc(-c5ccccc5)nc4c3)c3c(N)nccn32)C1 [Linsitinib] (partner 1 µM)
In outline:
as §1

As to UMC-11, the relative viability with Salubrinal + Tozasertib (first compound 0.08 µM) came to 0.208; with Salubrinal + Tozasertib (first compound 0.253 µM) it was 0.225; with Salubrinal + Tozasertib (first compound 0.8 µM), 0.21; with Salubrinal + Tozasertib (first compound 2.53 µM), 0.186; with Salubrinal + Tozasertib (first compound 8 µM), 0.189; with Salubrinal + Bortezomib (first compound 0.08 µM), 0.747. The relative viability in the experiment with Salubrinal + Bortezomib (first compound 0.253 µM) was determined as 0.462; with Salubrinal + Bortezomib (first compound 0.8 µM), 1.29; with Salubrinal + Bortezomib (first compound 2.53 µM) it was 0.904; with Salubrinal + Bortezomib (first compound 8 µM), 0.575; in the experiment with Salubrinal + Dasatinib (first compound 0.08 µM) it was 0.654; with Salubrinal + Dasatinib (first compound 0.253 µM), 0.306. The relative viability was found to be 0.621 with Salubrinal + Dasatinib (first compound 0.8 µM); 0.458 with Salubrinal + Dasatinib (first compound 2.53 µM); 0.471 in the experiment with Salubrinal + Dasatinib (first compound 8 µM); 1.03 in experiment [1] (first compound 0.04 µM); 0.94 in experiment [1] (first compound 0.1265 µM); 1 in experiment [1] (first compound 0.4 µM). The relative viability in experiment [1] (first compound 1.265 µM) is 1.12; in experiment [1] (first compound 4 µM) it was 0.956.

The values are drawn from the supplement of paper PMC10307832.
